In article PMC12495443, “Developing inhibitors of the guanosine triphosphate hydrolysis accelerating activity of Regulator of G protein Signaling-14 [drawing 1]” (The Journal of Biological Chemistry, 2025):
Positions count from the first letter of the chain named. Entries after “also recorded” stand apart in the source; their conditions may differ.

Assays:
[1] = target: T1, cysteine-less RGS12 RGS-box protein (Homo sapiens, UniProt O14924, C701S/C748S/C775S/C831S); experiment: Transcreener GDP RGScreen assay with cysteine-less RGS12 RGS-box; assay type: biochemical; settings: range given jointly for cysteine-less RGS14 and RGS12 proteins; read-out: estimated IC50, cysteine-less RGS12 RGS-box
T1 construct: human RGS12 RGS-box (aa 695–843 of UniProt O14924); host or cells: E. coli
T1 sequence (O14924 695-843 C701S/C748S/C775S/C831S): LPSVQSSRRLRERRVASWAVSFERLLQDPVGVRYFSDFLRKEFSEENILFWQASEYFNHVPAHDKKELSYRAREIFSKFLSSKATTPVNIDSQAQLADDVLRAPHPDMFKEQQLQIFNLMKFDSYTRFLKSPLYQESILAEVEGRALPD
From the text: (§1) Given the earlier experience with screening hit CCG-4986 being a covalent modifier of RGS4 cysteine residues ([35]), we sought to exclude protein-thiol reactivity as a potential mechanism of action of the active compounds derived from the AtomNet virtual screening effort ([55]) and SAR campaign follow-ups. To address this possibility and screen out thiol-reactive hits, cysteine-lacking versions of recombinant proteins spanning the RGS-boxes of RGS14 and RGS12 were purified from E. coli cultures.
Reagents and protocols for the fluorescence anisotropy-based Transcreener GDP RGScreen assay using a rate-altered, double point-mutant, recombinant Gαi1 protein have been extensively described previously ([43], [44]); reactions were always performed so that total GTP converted over the time course was consistently less than 10% of reaction maximum input. […] Open-reading frames (ORFs) encoding wild-type versions of the human RGS14 RGS-box (aa 46–195 of UniProt O43566) and human RGS12 RGS-box (aa 695–843 of UniProt O14924) were each sub-cloned in-frame with an N-terminal hexahistidine (His6) expression tag in the plasmid pET30a, expressed in E. coli cultures, and then purified by nickel-nitriloacetate (Ni-NTA) and size-exclusion (Superdex 200) column chromatographies by GenScript using previously described methods ([35]). […]

[2] = target: T2, human RGS12 RGS-box (wild-type) (Homo sapiens, UniProt O14924); set-up: method as in earlier work; settings: Transcreener GDP RGScreen; ref (8); cited from earlier work
T2 construct: human RGS12 RGS-box (aa 695–843 of UniProt O14924); host or cells: E. coli
T2 sequence (O14924 695-843): T1 sequence (O14924 695-843 C701S/C748S/C775S/C831S) with S7C, S54C, S81C, S137C

[3] = target: T3, cysteine-less RGS14 RGS-box protein (Homo sapiens, UniProt O43566, C100S/C183S); experiment: Transcreener GDP RGScreen assay with cysteine-less RGS14 RGS-box; assay type: biochemical; settings: range given jointly for cysteine-less RGS14 and RGS12 proteins; read-out: estimated IC50, cysteine-less RGS14 RGS-box
T3 construct: human RGS14 RGS-box (aa 46–195 of UniProt O43566); host or cells: E. coli
T3 sequence (O43566 46-195 C100S/C183S): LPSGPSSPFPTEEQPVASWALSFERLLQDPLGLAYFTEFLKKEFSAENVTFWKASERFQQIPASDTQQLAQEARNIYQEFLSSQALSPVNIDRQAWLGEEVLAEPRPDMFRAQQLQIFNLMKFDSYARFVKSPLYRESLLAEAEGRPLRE
From the text: as §1
Reagents and protocols for the fluorescence anisotropy-based Transcreener GDP RGScreen assay using a rate-altered, double point-mutant, recombinant Gαi1 protein have been extensively described previously ([43], [44]); reactions were always performed so that total GTP converted over the time course was consistently less than 10% of reaction maximum input. Specific methods for its application in assessing RGS14 and RGS12 GAP activity are summarized as follows. Open-reading frames (ORFs) encoding wild-type versions of the human RGS14 RGS-box (aa 46–195 of UniProt O43566) and human RGS12 RGS-box (aa 695–843 of UniProt O14924) were each sub-cloned in-frame with an N-terminal hexahistidine (His6) expression tag in the plasmid pET30a, expressed in E. coli cultures, and then purified by nickel-nitriloacetate (Ni-NTA) and size-exclusion (Superdex 200) column chromatographies by GenScript using previously described methods ([35]). […]
Supplementary Figure S5. […] (A,B) Recombinant, cysteine residue-lacking (“-cys”) RGS14 RGS-box protein (panel A) and cysteine residue-lacking RGS12 RGS-box protein ([…]) were both observed, in a concentration-dependent fashion (indicated in ng/µL by color), to increase steady-state GDP production by 0.5 ng/µL Gai1(DM) protein in a 20 µL final reaction volume, as measured by the Transcreener® GDP-detection RGScreen™ assay and detected by the change in polarization (ΔmP) at each indicated time point (“enz” = Gai1(DM) protein a.k.a. […]

[4] = target: T4, human RGS14 RGS-box (wild-type) (Homo sapiens, UniProt O43566); experiment: Transcreener GDP RGScreen fluorescence polarization assay of RGS14 RGS-box GAP activity on Gαi1(DM); assay type: biochemical; settings: for IC50: wild-type RGS14 RGS-box GAP activity, Gαi1(DM), Transcreener GDP RGScreen, read-out: RGS14 pIC50 (converted)
T4 construct: human RGS14 RGS-box (aa 46–195 of UniProt O43566); host or cells: E. coli
T4 sequence (O43566 46-195): T3 sequence (O43566 46-195 C100S/C183S) with S55C, S138C
Method in brief: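 Steady-state GTP hydrolysis by rate-altered double point-mutant Gαi1 was read by Transcreener GDP fluorescence polarization, with GTP conversion kept below 10% of maximum input. The E. coli-expressed, N-terminal His6-tagged wild-type RGS-boxes were RGS12 aa 695–843 and RGS14 aa 46–195.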

[5] = target: T4, human RGS14 RGS-box (wild-type); set-up: method as in earlier work; settings: Transcreener GDP RGScreen; ref (8); cited from earlier work
[6] = tested on: THP-1 cell line; experiment: Cytotoxicity assays (CytoTox-Glo, CytoTox 96); assay type: cell-based; settings: THP-1 cells, overnight, CytoTox-Glo and CytoTox 96
Description: To evaluate cellular toxicity of active compounds, we employed the immortalized human monocytic THP1-Dual cell line (InvivoGen) in two orthogonal cytotoxicity assays: ATP-dependent luminescence (CytoTox-Glo) and colorimetric lactate dehydrogenase (LDH) release (CytoTox 96). For each assay, compounds were serially diluted 2-fold starting at 250 μM and added to 96-well flat-bottom tissue culture plates (Thermo Scientific Nunc, Cat# 165306). THP1-Dual cells were then seeded at 20,000 to 30,000 cells per well in 100 μl RPMI 1640 media supplemented with 10% fetal bovine serum (Gibco). Plates were gently mixed and incubated overnight at 37 °C in a humidified 5% CO2 incubator. For the CytoTox-Glo assay (Promega, Cat# G9291), 50 μl of assay reagent was added to each well. Plates were mixed briefly, sealed, and incubated at room temperature for 15 min before reading luminescence on a TECAN Infinite M1000 Pro plate reader to quantify dead-cell signal. Subsequently, 50 μl of a digitonin-containing lysis solution was added to each well, followed by a second luminescence read after 15 min to assess total cell content. Percent cytotoxicity was calculated per manufacturer instructions. For the CytoTox 96 Non-Radioactive Cytotoxicity Assay (Promega, Cat# G1780), after overnight compound treatment, LDH release into the culture medium was measured by adding the provided substrate mix. Absorbance was read at 490 or 492 nm within 1 h of adding the stop solution. Assay optimization and data normalization were conducted according to the manufacturer’s technical manual.

[7] = target: T2, human RGS12 RGS-box (wild-type); experiment: Transcreener GDP RGScreen fluorescence polarization assay of RGS12 RGS-box GAP activity on Gαi1(DM); assay type: biochemical; settings: wild-type RGS12 RGS-box GAP activity, Gαi1(DM), read-out: RGS12 pIC50 (converted)
From the text: We previously described work with BellBrook Labs creating the Transcreener GDP RGScreen fluorescence polarization assay of steady-state GTP hydrolysis, leveraging a double point-mutant in the Gα enzyme to make GTP hydrolysis, rather than GDP (product) release, the rate-limiting step for multiple rounds of GTP conversion ([57], [59]). […] Titrating inputs of the double point-mutant (“DM”) Gαi1 and RGS-box recombinant proteins (Fig. S2, B and C) established a robust, medium-throughput assay for evaluating potential RGS14 and RGS12 inhibitors, with “assay quality” Z′ scores ([60]) above 0.76 for each target (Fig. S2D).
Reagents and protocols for the fluorescence anisotropy-based Transcreener GDP RGScreen assay using a rate-altered, double point-mutant, recombinant Gαi1 protein have been extensively described previously ([43], [44]); reactions were always performed so that total GTP converted over the time course was consistently less than 10% of reaction maximum input. Specific methods for its application in assessing RGS14 and RGS12 GAP activity are summarized as follows. Open-reading frames (ORFs) encoding wild-type versions of the human RGS14 RGS-box (aa 46–195 of UniProt O43566) and human RGS12 RGS-box (aa 695–843 of UniProt O14924) were each sub-cloned in-frame with an N-terminal hexahistidine (His6) expression tag in the plasmid pET30a, expressed in E. coli cultures, and then purified by nickel-nitriloacetate (Ni-NTA) and size-exclusion (Superdex 200) column chromatographies by GenScript using previously described methods ([35]). These recombinant His6-tag fusion proteins were stored at −80 °C in storage buffer (150 mM NaCl, 50 mM Tris-HCl pH 8.0, 10% glycerol) before thawing and use. Cysteine-less versions were similarly produced by ORF site-directed mutagenesis: for RGS14, codons for cysteine residues 47 and 130 (numbered as in PDB id 2JNU) were replaced with serine codons; for RGS12, codons for cysteines 4, 51, 78, and 134 (numbered in relation to PDB id 2EBZ) were replaced with serine codons. Use of Transcreener GDP-detection reagents to assess compound inhibition of Naegleria fowleri Gα7 protein GTPase activity ([83]) has previously been described ([84]).

[8] = target: T5, RGS14 RGS-box (GAP activity on wild-type Gαi1) (Homo sapiens, UniProt O43566); experiment: Single-turnover [γ-33P]GTP hydrolysis assay of RGS-box GAP activity; assay type: biochemical; settings: wild-type Gαi1, concentration-dependent
T5 sequence (O43566 67-184 limits assumed): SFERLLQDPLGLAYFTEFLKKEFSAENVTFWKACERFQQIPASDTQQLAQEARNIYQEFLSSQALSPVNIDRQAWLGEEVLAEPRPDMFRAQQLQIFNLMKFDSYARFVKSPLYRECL
From the text: To further evaluate the functional activity of these triazolothiadiazine derivatives, and especially to eliminate concerns of misascribing GAP-inhibitory activity to potential assay interference, we tested two representative compounds—Z55660043 and Z55627844—in the gold-standard single-turnover radioactive GTP hydrolysis assay ([7], [58]) (Fig. 6).
The single-turnover radiolabeled-GTP hydrolysis assay is the gold standard assay for RGS-box GAP activity, first described using [γ -^32P]GTP by Berman et al. ([7]) and recently modified for modern performance ([91], [92], [93], [94]) to use readily available [γ-^33P]GTP substrate and perchloric acid quenching. The assay was performed by first pre-loading wild-type (WT) Gα protein (i.e., 750 nM purified, recombinant, wild-type-sequence human Gαi1 protein) with a slight excess (1 μM) of [γ-^33P]GTP for 15 min at 30 °C. Assay initiation involved adding purified recombinant RGS protein previously pre-incubated for 30 min at 30 °C with a candidate inhibitor. […] Supernatant aliquots were then added to liquid scintillation fluid and [^33P]-Pi content (i.e., hydrolyzed GTP) was quantified with a scintillation counter with an appropriate β-transmission window.

Row | Compound | IC50 [1] [µM] | estimated pIC50 RGS12 [2] | IC50 [3] [µM] | IC50 [4] [µM] | estimated pIC50RGS14 [5] | cytotoxicity [6] | IC50 [7] [µM] | inhibition of RGS14 RGS-box-mediated acceleration of [γ-33P]GTP hydrolysis [8] | Ratio (RGS14 pIC50 / RGS12 pIC50) ([4]; values > 1.0 reflect RGS14 selectivity)
1 | COc1ccc2[nH]c(SC(C)C(=O)c3c(F)cc(F)cc3F)nc2c1 (stereo not shown) [Z1098346112, 2-[(5-methoxy-1H-1,3-benzodiazol-2-yl)sulfanyl]-1-(2,4,6-trifluorophenyl)propan-1-one] | 26 to 64 | 4.4 | 26 to 64 | 63.1 | 4.2 | – | – | – | –
2 | COc1ccc(OCc2nnc3n2N=C(c2cc4ccccc4o2)CS3)cc1 [Z55627844] | – | – | – | 3.63 | – | without measurable cytotoxicity; also recorded: no overt cytotoxicity | 21.9 | inhibit RGS14 RGS-box-mediated acceleration | 1.17
